Experimental findings from paper PMC6028563, “Probing Substituents in the 1- and 3-Position: Tetrahydropyrazino-Annelated Water-Soluble Xanthine Derivatives as Multi-Target Drugs With Potent Adenosine Receptor Antagonistic Activity” (Frontiers in Chemistry, 2018) are described below.

Bounds are passed on as bounds.

One assay concerns the target T1, rat A1 AR (Rattus norvegicus, UniProt P25099).
T1 construct: A1 ARs of rat brain cortical membrane; from tissue; host or cells: rat brain cortex membranes
T1 sequence (P25099 1-326): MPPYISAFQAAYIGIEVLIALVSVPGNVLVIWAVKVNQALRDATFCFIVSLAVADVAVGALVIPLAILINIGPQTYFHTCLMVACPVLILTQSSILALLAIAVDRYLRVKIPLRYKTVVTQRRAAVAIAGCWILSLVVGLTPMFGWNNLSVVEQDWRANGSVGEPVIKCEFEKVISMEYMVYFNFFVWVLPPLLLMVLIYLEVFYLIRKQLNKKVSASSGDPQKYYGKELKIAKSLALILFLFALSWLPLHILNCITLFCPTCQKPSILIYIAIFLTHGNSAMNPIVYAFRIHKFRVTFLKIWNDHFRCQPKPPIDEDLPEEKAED
Description: Radioligand binding assay at rat A1 AR (rat brain cortex) vs. [^3H]CCPA. As to conditions: rat (r); rat brain cortex; n = 3. As to the method: (§1) Membrane preparations and radioligand binding assays at rat A1 (rat brain cortex) and rat A2A ARs (rat brain striatum) were performed as previously described (Ozola et al., [2003]; Alnouri et al., [2015]). For assays at human A1, A2A, A2B, and A3 ARs, CHO cell membranes expressing one of the human AR subtypes were used as previously reported (Klotz et al., [1998]; Alnouri et al., [2015]; De Filippo et al., [2016]).
(§2) The synthesized tetrahydropyrazino[2,1-f ]purinediones 13–20 were evaluated in radioligand binding assays for their affinity to A1 ARs of rat brain cortical membrane and to A2A ARs of rat brain striatal membrane preparations. Selected compounds were further investigated for their affinity to human A1 and A2A ARs recombinantly expressed in Chinese hamster ovary (CHO) cells. All compounds were additionally investigated for their affinity to human A2B and A3 ARs recombinantly expressed in CHO cells to determine their AR subtype selectivity. […] It is well known that all xanthine derivatives lacking a ribose moiety, including tricyclic compounds, can only block ARs, but never act as AR agonists; therefore, additional functional studies were not required. […] Potent MAO-B inhibitors were additionally investigated for inhibition of human MAO-A to assess their selectivity. Results are presented in Tables 1–6, and data of standard ligands are included for comparison.

Another assay addresses T2, recombinant human MAO-B (Homo sapiens, UniProt P27338).
T2 construct: purchased Sigma-Aldrich M7441; host or cells: baculovirus-infected insect cells
T2 sequence (P27338 1-520): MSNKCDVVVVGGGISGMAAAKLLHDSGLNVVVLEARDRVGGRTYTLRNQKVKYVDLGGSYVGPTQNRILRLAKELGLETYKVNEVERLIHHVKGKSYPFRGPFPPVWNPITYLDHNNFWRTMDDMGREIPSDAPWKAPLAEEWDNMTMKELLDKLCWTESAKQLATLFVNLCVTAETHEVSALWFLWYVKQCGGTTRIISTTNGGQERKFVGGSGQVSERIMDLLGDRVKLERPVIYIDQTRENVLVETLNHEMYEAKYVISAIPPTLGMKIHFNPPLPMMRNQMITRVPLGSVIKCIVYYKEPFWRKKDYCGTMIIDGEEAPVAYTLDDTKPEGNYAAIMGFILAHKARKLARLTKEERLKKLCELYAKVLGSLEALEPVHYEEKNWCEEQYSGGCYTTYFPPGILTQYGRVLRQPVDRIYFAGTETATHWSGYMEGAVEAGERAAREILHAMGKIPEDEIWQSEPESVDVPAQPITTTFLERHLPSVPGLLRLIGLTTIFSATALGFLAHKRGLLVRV
Description: Monoamine oxidase assay (Amplex Red), MAO-B. Type of assay: biochemical. Conditions: for inhibition at 10 µM: at 10,000 nM (10 μM), read-out: % inhibition at indicated concentration, Human MAO-B; for IC50: n = 3, read-out: IC50 ± SEM, Human MAO-B. As to the method:
(§3) The determination of MAO-A and MAO-B inhibition was performed using commercially available recombinant human MAO-A and MAO-B enzymes expressed in baculovirus-infected insects sells (Sigma-Aldrich, M7316 and M7441) applying the commercially available Amplex® Red monoamine oxidase assay kit (Invitrogen A12214). The assays were performed as previously described. The determination of rat MAO-B inhibition was performed using mitochondrial-enriched fractions from male Sprague Dawley rat livers. […]

The target of another assay is T3, human A1 AR (Homo sapiens, UniProt P30542).
T3 construct: expressed in transfected cells; host or cells: CHO cells
T3 sequence (P30542 1-326): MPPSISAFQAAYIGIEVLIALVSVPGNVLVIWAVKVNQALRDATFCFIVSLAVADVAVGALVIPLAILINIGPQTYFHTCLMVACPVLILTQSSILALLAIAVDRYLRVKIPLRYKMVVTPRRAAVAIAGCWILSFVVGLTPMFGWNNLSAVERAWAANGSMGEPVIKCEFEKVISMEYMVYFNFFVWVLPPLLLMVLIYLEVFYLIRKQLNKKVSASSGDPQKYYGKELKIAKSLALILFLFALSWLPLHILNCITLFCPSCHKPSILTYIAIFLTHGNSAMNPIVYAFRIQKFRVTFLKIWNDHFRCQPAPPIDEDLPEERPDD
Put plainly: Radioligand binding assay at human A1 AR vs. [^3H]CCPA. As to conditions: human (h); CHO cell membranes; n = 3. On the procedure: as §1, §2

Another assay has as its target T4, rat A2A AR (Rattus norvegicus, UniProt P30543).
T4 construct: A2A ARs of rat brain striatal membrane preparations; from tissue; host or cells: rat brain striatum membranes
Put plainly: Radioligand binding assay at rat A2A AR (rat brain striatum) vs. [^3H]MSX-2. Conditions: rat (r); for % inhibition of radioligand binding at indicated concentration, A2A vs. [^3H]MSX-2: at 1,000 nM; for Ki: rat brain striatum, n = 3, read-out: Ki ± SEM, A2A vs. [^3H]MSX-2. As to the method: as §1, §2

For another assay, the target named is T5, human A3 AR (Homo sapiens, UniProt P0DMS8).
T5 construct: expressed in transfected cells; host or cells: CHO cells
T5 sequence (P0DMS8 1-318): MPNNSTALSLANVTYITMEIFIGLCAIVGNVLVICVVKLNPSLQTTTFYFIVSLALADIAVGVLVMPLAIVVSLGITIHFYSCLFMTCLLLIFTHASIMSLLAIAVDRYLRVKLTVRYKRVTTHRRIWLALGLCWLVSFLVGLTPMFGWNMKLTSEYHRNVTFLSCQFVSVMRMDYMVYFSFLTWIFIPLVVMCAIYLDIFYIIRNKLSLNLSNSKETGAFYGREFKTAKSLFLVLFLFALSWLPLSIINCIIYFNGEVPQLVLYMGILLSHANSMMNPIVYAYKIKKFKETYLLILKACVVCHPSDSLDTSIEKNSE
Description: Radioligand binding assay at human A3 AR vs. [^3H]PSB-11. As to conditions: for Ki: CHO cell membranes, n = 2 (n = 3 where marked a), read-out: Ki ± SEM, A3 vs. [^3H]PSB-11; for inhibition at 10 µM: at 10,000 nM, read-out: % inhibition of radioligand binding at indicated concentration, A3 vs. [^3H]PSB-11. On the procedure: as §1, §2

A further assay addresses T6, human A2B AR (Homo sapiens, UniProt P29275).
T6 construct: expressed in transfected cells; host or cells: CHO cells
T6 sequence (P29275 1-332): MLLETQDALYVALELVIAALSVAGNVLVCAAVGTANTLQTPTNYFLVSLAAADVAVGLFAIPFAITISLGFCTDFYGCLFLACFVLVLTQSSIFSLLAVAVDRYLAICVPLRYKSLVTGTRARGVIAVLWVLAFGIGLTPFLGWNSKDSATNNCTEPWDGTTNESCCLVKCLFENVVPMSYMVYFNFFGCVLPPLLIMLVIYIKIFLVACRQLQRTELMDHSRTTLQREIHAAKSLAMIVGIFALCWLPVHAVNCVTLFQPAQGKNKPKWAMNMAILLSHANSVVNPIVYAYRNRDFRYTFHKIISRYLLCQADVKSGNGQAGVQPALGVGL
Put plainly: Radioligand binding assay at human A2B AR vs. [^3H]PSB-603. Conditions: for Ki: CHO cell membranes, n = 2 (n = 3 where marked a), read-out: Ki ± SEM, A2B vs. [^3H]PSB-603; for inhibition at 1 µM: at 1,000 nM, read-out: % inhibition of radioligand binding at indicated concentration, A2B vs. [^3H]PSB-603. As to the method: as §1, §2

The next assay concerns the target T7, recombinant human MAO-A (Homo sapiens, UniProt P21397).
T7 construct: purchased Sigma-Aldrich M7316; host or cells: baculovirus-infected insect cells
T7 sequence (P21397 1-527): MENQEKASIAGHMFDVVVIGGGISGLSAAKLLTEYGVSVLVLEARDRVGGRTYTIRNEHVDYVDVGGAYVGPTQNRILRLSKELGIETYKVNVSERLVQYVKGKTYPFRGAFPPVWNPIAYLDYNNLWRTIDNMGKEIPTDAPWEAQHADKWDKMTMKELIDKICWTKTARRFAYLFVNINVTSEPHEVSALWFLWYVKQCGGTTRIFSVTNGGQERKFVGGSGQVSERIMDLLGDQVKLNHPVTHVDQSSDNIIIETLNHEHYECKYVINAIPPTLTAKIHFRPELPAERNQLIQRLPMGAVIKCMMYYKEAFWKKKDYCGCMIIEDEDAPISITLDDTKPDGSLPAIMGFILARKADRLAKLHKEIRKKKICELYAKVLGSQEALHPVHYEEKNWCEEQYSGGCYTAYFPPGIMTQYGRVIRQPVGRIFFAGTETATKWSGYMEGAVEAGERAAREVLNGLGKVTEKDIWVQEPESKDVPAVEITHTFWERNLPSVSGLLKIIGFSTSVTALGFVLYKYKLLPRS
Description: Monoamine oxidase assay (Amplex Red), MAO-A. Type of assay: biochemical. Conditions: for inhibition at 10 µM: at 10,000 nM, read-out: % inhibition at indicated concentration, Human MAO-A. As to the method:
as §3

Broadly, the Ki is a measure of affinity in units of concentration, obtained from inhibition or displacement. By IC50 is commonly meant the point on the concentration scale where inhibition reaches its midpoint.

T4 sequence (P30543 whole entry): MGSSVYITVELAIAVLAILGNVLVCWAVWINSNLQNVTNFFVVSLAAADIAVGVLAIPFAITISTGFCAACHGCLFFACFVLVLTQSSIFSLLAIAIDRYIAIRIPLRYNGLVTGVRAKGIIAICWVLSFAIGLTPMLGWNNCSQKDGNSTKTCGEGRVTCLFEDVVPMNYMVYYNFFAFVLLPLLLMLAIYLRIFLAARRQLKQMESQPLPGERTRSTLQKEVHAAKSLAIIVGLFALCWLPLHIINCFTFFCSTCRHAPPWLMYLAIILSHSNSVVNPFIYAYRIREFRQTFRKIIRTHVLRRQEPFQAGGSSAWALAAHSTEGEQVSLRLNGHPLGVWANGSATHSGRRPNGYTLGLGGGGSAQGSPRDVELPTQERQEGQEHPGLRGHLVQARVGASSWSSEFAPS

Consider `CCn1c(=O)c2c(nc3n2CCN(Cc2ccc(F)cc2)C3)n(C)c1=O` [Compound 14h, 3-ethyl-8-(4-fluorobenzyl)-1-methyl-6,7,8,9-tetrahydropyrazino[2,1-f]purine-2,4(1H,3H)-dione], for which the Ki was 164 ± 28 nM on rat A1 AR; 5120 nM on human A1 AR; over 1000 nM at rat A2A AR; over 10000 nM at human A3 AR; over 1000 nM on human A2B AR. For the same molecule, the inhibition at 10 µM amounted to 24% at recombinant human MAO-B and 37% at human A3 AR. In addition, on recombinant human MAO-B, the IC50 was over 10000 nM. Besides, at rat A2A AR, the “% inhibition of radioligand binding at indicated concentration, A2A vs. [^3H]MSX-2” value came to 7%. For the same molecule, the inhibition at 1 µM at human A2B AR stood at 9%.
As to `CCn1c(=O)c2c(nc3n2CCN(Cc2c(Cl)cccc2Cl)C3)n(C)c1=O` [Compound 14k, 8-(2,6-dichlorobenzyl)-3-ethyl-1-methyl-6,7,8,9-tetrahydropyrazino[2,1-f]purine-2,4(1H,3H)-dione], the Ki at rat A1 AR is 142 ± 32 nM; on human A1 AR, 197 ± 5 nM; at rat A2A AR, 1100 nM; at human A3 AR it was over 10000 nM; on human A2B AR, over 1000 nM. The inhibition at 10 µM at recombinant human MAO-B amounted to 43%; on human A3 AR, 17%. Also, on recombinant human MAO-B, the IC50 was over 10000 nM. The inhibition at 1 µM on human A2B AR stood at 8%.
Consider `CCn1c(=O)c2c(nc3n2CCN(Cc2cc(F)cc(Cl)c2)C3)n(C)c1=O` [Compound 14n, 8-(3-chloro-5-fluorobenzyl)-3-ethyl-1-methyl-6,7,8,9-tetrahydropyrazino[2,1-f]purine-2,4(1H,3H)-dione], for which the Ki was 36.2 ± 9.9 nM at rat A1 AR; 298 ± 52 nM at human A1 AR; 981 ± 116 nM on rat A2A AR; 15600 nM on human A3 AR; over 1000 nM at human A2B AR. Moreover, the IC50 at recombinant human MAO-B is 3740 nM; at recombinant human MAO-A (n = 3, read-out: IC50 ± SEM, Human MAO-A) it was over 10000 nM. Further, the inhibition at 10 µM at recombinant human MAO-A worked out at 19%. Further, the inhibition at 1 µM at human A2B AR was determined as 1%.
As to `CCn1c(=O)c2c(nc3n2CCN(Cc2ccccc2F)C3)n(CC)c1=O` [Compound 15a, 1,3-diethyl-8-(2-fluorobenzyl)-6,7,8,9-tetrahydropyrazino[2,1-f]purine-2,4(1H,3H)-dione], the Ki on rat A1 AR was 32 ± 0.9 nM; on human A1 AR it was 156 ± 5 nM; at rat A2A AR, 2000 nM; at human A3 AR, 7820 nM; on human A2B AR it was over 1000 nM. On recombinant human MAO-B, the inhibition at 10 µM turned out to be 22%. The IC50 at recombinant human MAO-B is over 10000 nM. Moreover, the inhibition at 1 µM at human A2B AR is 12%.
`CCn1c(=O)c2c(nc3n2CCN(Cc2cccc(F)c2)C3)n(CC)c1=O` [Compound 15b, 1,3-diethyl-8-(3-fluorobenzyl)-6,7,8,9-tetrahydropyrazino[2,1-f]purine-2,4(1H,3H)-dione]: the inhibitory constant (Ki) on rat A1 AR is 47.2 ± 19.9 nM; at human A1 AR it was 207 ± 11 nM; on rat A2A AR, 1580 nM; at human A3 AR, 7020 nM; on human A2B AR it was over 1000 nM. At recombinant human MAO-B, the inhibition at 10 µM was 49%. Also, the IC50 at recombinant human MAO-B is at least 10000 nM. In addition, the inhibition at 1 µM at human A2B AR is 9%.
Take `CCn1c(=O)c2c(nc3n2CCN(Cc2ccc(Cl)c(C(F)(F)F)c2)C3)n(CC)c1=O` [Compound 15p, 8-(4-chloro-3-(trifluoromethyl)benzyl)-1,3-diethyl-6,7,8,9-tetrahydropyrazino[2,1-f]purine-2,4(1H,3H)-dione]: the Ki at rat A1 AR is 588 ± 28 nM; on human A1 AR, 129 ± 22 nM; at rat A2A AR it was over 1000 nM; on human A3 AR it was 7180 nM; on human A2B AR it was over 1000 nM. Further, the inhibition at 10 µM at recombinant human MAO-B was 67%; on recombinant human MAO-A, 6%. For the same molecule, the “% inhibition of radioligand binding at indicated concentration, A2A vs. [^3H]MSX-2” value at rat A2A AR stood at 40%. Also, the inhibition at 1 µM on human A2B AR came out at 32%.
